Measured values taken from PMC3606385 (PLoS ONE, 2013).
Like-named read-outs stand apart in the source and are kept apart here.

Experiments:
[1] = biological target: T1, Rat 11β-HSD1 (Rattus norvegicus, UniProt P16232); experiment: 11β-HSD1 assay in adult rat testis microsomes; format: biochemical; settings: microsomes, screening
T1 construct: endogenous in cells; host or cells: primary adult Sprague-Dawley rat Leydig cells
Method: (§1) Rats were euthanized by CO2, and livers, testes and kidneys were collected. Rat liver, testis and kidney microsomes were prepared as described previously. In brief, rat liver and kidney were homogenized in […] PBS buffer containing 0.25 M sucrose, and nuclei and large cell debris were removed by centrifugation at 1500× g for 10 min. The post-nuclear supernatants were centrifuged twice at 105,000×g, the resultant microsomal pellets were resuspended. Protein contents were measured by Bio-Rad Dye Reagent Concentrate (Cat.#500-0006). Microsomes were used for measurement of 11β-HSD1 and 11β-HSD2 activities.
(§2) The rat testis and liver or human liver microsomes were used for 11β-HSD1 assay. 11β-HSD1 activity was performed in the microsome according to a previously described method. […] 2 µg microsomes were added to each tube to initiate the reaction and the reaction mixture was incubated for up to 2 hrs, during which the reaction is within the linear range. The rest procedure was similar to 11β-HSD1 assay in intact cells.
(§3) The IC50 was determined by adding different concentrations of each compound in the 11β-HSD1 or 11β-HSD2 reaction as described. The mode of inhibition was assayed by adding various concentrations of steroid substrates in the presence of an inhibitor as described.

[2] = biological target: T2, Human 11β-HSD1 (Homo sapiens, UniProt P28845); experiment: 11β-HSD1 assay in microsomes from CHOP cells transfected with human HSD11B1; format: biochemical; settings: microsomes, screening
T2 construct: expressed in transfected cells; host or cells: CHOP cells (transient, FuGENE)
T2 sequence (P28845 whole entry): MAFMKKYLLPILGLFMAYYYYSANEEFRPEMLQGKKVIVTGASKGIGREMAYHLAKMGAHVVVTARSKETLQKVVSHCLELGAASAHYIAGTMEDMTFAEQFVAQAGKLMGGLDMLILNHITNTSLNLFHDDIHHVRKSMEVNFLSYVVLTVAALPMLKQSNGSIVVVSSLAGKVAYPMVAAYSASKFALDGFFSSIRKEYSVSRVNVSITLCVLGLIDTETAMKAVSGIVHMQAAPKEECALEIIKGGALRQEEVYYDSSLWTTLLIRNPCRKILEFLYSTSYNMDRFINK
Method: (§4) An expression plasmid was constructed to express human 11β-HSD1 (HSD11B1) cDNA in pcDNA I expression vector from its original human HSD11B1 vector (pBluescriptSK+).[15]. The Escherichia coli transformants carrying an insert were selected by colony hybridization, and a clone with the insert in the correct orientation relative to the vector T7 promoter was identified by restriction mapping. All transfections were carried out on 80% confluent cultures in 12-well plates. Aliquots of 1 µg HSD11B1 pcDNA I were transfected into mammalian CHOP cells with the FuGENE Transfection Reagent (Roche) according to manufacturer's protocol. Cells were allowed to grow for 24 hours in media containing 10% fetal bovine serum. Then media were removed and cells were harvested for 11β-HSD1 activity assay.
as §2, §3

[3] = biological target: T1, Rat 11β-HSD1; experiment: 11β-HSD1 assay in intact rat Leydig cells; format: cell-based; settings: for Rat 11β-HSD1 Potency to Curcumin (fold) / IC50: intact rat Leydig cells; for Rat 11β-HSD1 Potency to Curcumin (fold): relative to curcumin; for IC50: read-out: Rat 11β-HSD1 IC50 (nM) in Leydig cells
Method: Rat Leydig cells contain the highest 11β-HSD1 activity in all cell types of rat tissues, and were used for rat 11β-HSD1 enzyme sources. Purified rat Leydig cells were obtained from 90-day-old Sprague-Dawley rats by collagenase digestion of the testes followed by Percoll density centrifugation of the cell suspension, according to the previously described method. […] The purity of cell fractions was evaluated by histochemical staining for 3β-hydroxysteroid dehydrogenase activity with […] etiocholanolone as the steroid substrate.
(§5) 11β-HSD1 reductase activity was performed in intact cells using endogenous cofactor NADPH as described previously. […] 25×10^3 cells were added to each tube to initiate the reaction and the reaction mixture was incubated for up to 2 hrs, during which the reaction is within the linear range. At the end of reaction, the reaction was stopped by adding 2 ml ice-cold ether. The steroids were extracted, and the organic layer was dried under nitrogen. The steroids were separated chromatographically on thin layer plates in chloroform and methanol (90∶10, v/v), and the radioactivity was measured using a scanning radiometer (System AR2000, Bioscan Inc., Washington, DC) as described previously. The percentage conversion of 11DHC to CORT or cortisone to cortisol was calculated by dividing the radioactive counts identified as 11-OH-steroids by the total counts.
as §3

[4] = biological target: T2, Human 11β-HSD1; experiment: 11β-HSD1 assay in intact CHOP cells transfected with human HSD11B1; format: cell-based; settings: for Human 11β-HSD1 Potency to Curcumin (fold): CHOP cells transfected with human HSD11B1, relative to curcumin
Method: as §4, §5, §3

[5] = biological target: T3, Human 11β-HSD2 (Homo sapiens, UniProt P80365); experiment: 11β-HSD2 assay in human kidney microsomes; format: biochemical; settings: for IC50: human kidney microsomes, read-out: IC50 (nM) Human 11β-HSD2
T3 construct: tissue Gentest (Woburn, MA); host or cells: human kidney microsomes
T3 sequence (P80365 1-405): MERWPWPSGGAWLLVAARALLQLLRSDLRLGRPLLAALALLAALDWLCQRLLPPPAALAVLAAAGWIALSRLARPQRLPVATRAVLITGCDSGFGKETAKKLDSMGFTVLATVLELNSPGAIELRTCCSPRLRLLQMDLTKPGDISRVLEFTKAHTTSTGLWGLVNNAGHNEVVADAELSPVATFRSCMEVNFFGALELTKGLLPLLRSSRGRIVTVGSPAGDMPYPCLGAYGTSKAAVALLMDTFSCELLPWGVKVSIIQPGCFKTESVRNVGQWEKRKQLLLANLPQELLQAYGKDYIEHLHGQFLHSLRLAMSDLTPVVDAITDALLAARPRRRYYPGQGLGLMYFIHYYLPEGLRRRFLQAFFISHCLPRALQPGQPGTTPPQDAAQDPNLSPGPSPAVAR
Method: (§6) The rat and human kidney microsomes were used for 11β-HSD2 sources. 11β-HSD2 activity was performed in the microsome according to a previously described method. In brief, the assay tubes contained 25 nM substrate CORT (for rat) or cortisol (for human), spiked with 30,000 cpm their respective ^3H-11β-hydroxyl steroid, 0.2 mM NAD+ and 0.1 mM DTT in the PBS buffer. 8 (rat) or 20 (human) µg kidney microsomes were added to each tube to initiate the reaction and the reaction mixture was incubated for up to 3 hrs, during which the reaction is within the linear range. The rest procedure was similar to 11β-HSD1 assay. The percentage conversion of CORT to 11DHC or cortisol to cortisone was calculated by dividing the radioactive counts identified as 11keto-steroids by the total counts.
as §3

[6] = biological target: T4, Rat 11β-HSD2 (Rattus norvegicus, UniProt P50233); experiment: 11β-HSD2 assay in rat kidney microsomes; format: biochemical; settings: for IC50: rat kidney microsomes
T4 construct: from tissue; host or cells: rat kidney microsomes
T4 sequence (P50233 1-400): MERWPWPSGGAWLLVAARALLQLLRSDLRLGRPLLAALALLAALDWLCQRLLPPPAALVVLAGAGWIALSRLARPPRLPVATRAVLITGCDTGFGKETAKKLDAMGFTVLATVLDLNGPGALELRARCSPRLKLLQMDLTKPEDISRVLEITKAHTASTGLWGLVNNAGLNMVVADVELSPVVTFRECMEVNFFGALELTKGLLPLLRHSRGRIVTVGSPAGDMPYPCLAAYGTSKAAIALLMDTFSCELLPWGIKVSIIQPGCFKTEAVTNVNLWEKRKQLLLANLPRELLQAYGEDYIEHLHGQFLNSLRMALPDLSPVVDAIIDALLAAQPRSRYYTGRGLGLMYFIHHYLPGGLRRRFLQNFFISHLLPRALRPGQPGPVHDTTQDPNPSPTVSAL
Method: as §1
as §6, with “In brief, the assay tubes contained 25 nM substrate CORT (for rat) or cortisol (for human), spiked with 30,000 cpm their respective ^3H-11β-hydroxyl steroid, 0.2 mM NAD+ and 0.1 mM DTT in the PBS buffer.” left out
as §3

[7] = CHOP cells transfected with human HSD11B1, read-out: Human 11β-HSD1 IC50 (nM) in CHOP cells

T1 sequence (P16232 whole entry): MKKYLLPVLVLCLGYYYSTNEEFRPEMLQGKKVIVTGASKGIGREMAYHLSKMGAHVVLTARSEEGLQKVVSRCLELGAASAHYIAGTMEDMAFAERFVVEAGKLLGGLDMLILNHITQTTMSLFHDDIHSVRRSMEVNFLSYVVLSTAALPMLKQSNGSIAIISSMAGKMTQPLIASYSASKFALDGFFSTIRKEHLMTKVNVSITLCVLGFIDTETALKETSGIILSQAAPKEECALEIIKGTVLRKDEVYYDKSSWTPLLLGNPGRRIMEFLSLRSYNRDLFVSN

Structure (SMILES) | Rat 11β-HSD1 Potency to Curcumin (fold) [3] | IC50 [3] | Human 11β-HSD1 Potency to Curcumin (fold) [4] | IC50 [4, 7] | IC50 [5] | IC50 [6] | Inhibition of human 11β-HSD2 at 100 µM [5] | Inhibition of rat 11β-HSD2 at 100 µM [6] | Inhibition of rat 11β-HSD1 at 100 μM ([3]; 100 μM, intact cells) | Inhibition of human 11β-HSD1 at 100 μM ([4]; 100 μM, intact cells) | IC50 ([4]; intact CHOP cells transfected with human HSD11B1, read-out: IC50 human 11β-HSD1 in intact cells) | Inhibitory effect against rat 11β-HSD1 in nutraceutical screen [1] | Inhibitory effect against human 11β-HSD1 in nutraceutical screen [2]
COc1ccc2cc3[n+](cc2c1OC)CCc1cc2c(cc1-3)OCO2 [berberine] | – | – | – | – | – | – | – | – | – | – | – | only curcumin (compound 1) showed inhibitory effects | only curcumin (compound 1) showed inhibitory effects
O=C(/C=C/c1ccc(Br)o1)/C=C/c1ccc(Br)o1 [compound 2] | 1.38 fold | 4210 nM | 2.31 fold | 995 nM | > 100000 nM | > 100000 nM | – | – | – | – | – | – | –
Cc1ccsc1/C=C/C(=O)/C=C/c1sccc1C [compound 4, (1E,4E)-1,5-bis(3-methylthiophen-2-yl) penta-1,4-dien-3-one] | 50.75 fold | 114 nM | 12.54 fold | 183 nM | 19600 nM | > 100000 nM | – | – | – | – | – | – | –
O=C1/C(=C/c2ccc(Br)o2)CC/C1=C\c1ccc(Br)o1 [compound 7] | 1.85 fold | 3130 nM | 1.73 fold | 1330 nM | > 100000 nM | > 100000 nM | – | – | – | – | – | – | –
Cc1ccc(/C=C2\CC/C(=C\c3ccc(C)s3)C2=O)s1 [compound 8] | 2.17 fold | 2670 nM | 20.68 fold | 111 nM | > 100000 nM | > 100000 nM | did not inhibit | did not inhibit | – | – | – | – | –
Cc1ccsc1/C=C1\CC/C(=C\c2sccc2C)C1=O [compound 9, (1E,4E)-1,5-bis(3-methylthiophen-2-yl) cyclopentanone] | – | > 100000 nM | – | > 100000 nM | > 100000 nM | > 100000 nM | – | – | did not inhibit | did not inhibit | – | – | –
Cn1cccc1/C=C1\CC/C(=C\c2cccn2C)C1=O [compound 10] | – | > 100000 nM | – | > 100000 nM | > 100000 nM | > 100000 nM | – | – | – | – | – | – | –
COc1ccc(-c2oc3c(CC=C(C)C)c(O[C@@H]4O[C@H](CO)[C@@H](O)[C@H](O)[C@H]4O)cc(O)c3c(=O)c2O[C@@H]2O[C@@H](C)[C@H](O)[C@@H](O)[C@H]2O)cc1 [icariin] | – | – | – | – | – | – | – | – | – | – | – | only curcumin (compound 1) showed inhibitory effects | only curcumin (compound 1) showed inhibitory effects

Further lines, with some results ahead:

Rat 11β-HSD1 Potency to Curcumin (fold) [3] | IC50 [3] | Human 11β-HSD1 Potency to Curcumin (fold) [4] | IC50 [4, 7] | IC50 [5] | IC50 [6] | Inhibition of human 11β-HSD2 at 100 µM [5] | Inhibition of rat 11β-HSD2 at 100 µM [6] | Inhibition of rat 11β-HSD1 at 100 μM ([3]; 100 μM, intact cells) | Inhibition of human 11β-HSD1 at 100 μM ([4]; 100 μM, intact cells) | IC50 ([4]; intact CHOP cells transfected with human HSD11B1, read-out: IC50 human 11β-HSD1 in intact cells) | Structure (SMILES) | Inhibitory effect against rat 11β-HSD1 in nutraceutical screen [1] | Inhibitory effect against human 11β-HSD1 in nutraceutical screen [2]
5.51 fold | 1050 nM | 10.20 fold | 225 nM | > 100000 nM | > 100000 nM | did not inhibit | did not inhibit | – | – | – | O=C1/C(=C/c2cccs2)CC/C1=C\c1cccs1 [compound 11] | – | –
0.54 fold | 10800 nM | 0.75 fold | 3050 nM | > 100000 nM | > 100000 nM | – | – | – | – | – | O=C1/C(=C/c2ccc(Br)o2)CCC/C1=C\c1ccc(Br)o1 [compound 12] | – | –
0.48 fold | 11900 nM | 0.50 fold | 4590 nM | > 100000 nM | > 100000 nM | – | – | – | – | – | Cc1ccc(/C=C2\CCC/C(=C\c3ccc(C)s3)C2=O)s1 [compound 13] | – | –
0.49 fold | 11800 nM | 1.09 fold | 2100 nM | > 100000 nM | > 100000 nM | – | – | – | – | – | Cn1cccc1/C=C1\CCC/C(=C\c2cccn2C)C1=O [compound 15] | – | –
2.27 fold | 2550 nM | 0.64 fold | 3570 nM | > 100000 nM | > 100000 nM | – | – | – | – | 3570 nM | O=C1/C(=C/c2cccs2)CCC/C1=C\c1cccs1 [compound 16, (1E,4E)-1,5-bis(thiophen-2-yl) cyclohexanone] | – | –
